The results in this text go back to PubChem BioAssay AID467 (The Scripps Research Institute Molecular Screening Center, 2006).

The term EC50 denotes the midpoint of the concentration-response curve.

Molecules are shown by their SMILES. Activity calls are given as the source filed them. The rule behind the calls is not given here.

The test relates to parental cell line counter screen, S1P1 agonist assay readout. The experiment in a line: signal in parental cells, counter-screen for S1P1 agonist project (AID 467;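 note: agonist potency measured against forskolin stimulation plus an EC20 level of SEW2871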). (A counterscreen serves to expose hits that act by an unwanted route or on another target.)
Regarding `CCC(=NCc1ccc2c(c1)OCO2)c1c(O)n(C2CCCCC2)c(=O)[nH]c1=O`, the EC50 was 26.6 µM (inactive).

In the case of `O=S1(=O)C=C(Sc2nc3cc(Cl)ccc3o2)c2ccccc21`, the EC50 was 6.35 µM.

As for `CCCC(=O)Nc1ccc2oc(-c3ccc(OC)c(Br)c3)nc2c1`, the EC50 is > 95.1 µM (inactive).

For `Cc1sc2ncnc(Sc3nnnn3-c3ccccc3)c2c1C`, the EC50 was > 30 µM (inactive).

As for `Cc1cccc(-n2ncc3c(N(C)C4CCCCC4)ncnc32)c1`, the EC50 is > 95.1 µM (inactive).

With `CCC(C)OC(=O)c1[nH]c2c(c1C)C(=O)CC(c1ccc(N(C)C)cc1)C2` (centres undefined), the EC50 is > 30 µM (inactive).

Regarding `CCCCOc1ccc(S(=O)(=O)Nc2cccnc2)cc1`, the EC50 is > 95.1 µM (inactive).

`COc1ccc(N=c2scc(-c3ccc(S(=O)(=O)N4CCOCC4)cc3)n2CCCO)cc1`: the EC50 was > 30 µM (inactive).

In the case of `CN1/C(=C/C(=O)c2nc(S(C)(=O)=O)ncc2Cl)C(C)(C)c2ccccc21`, the EC50 was 2.22 µM.

Take `CCc1ccc(NC(=O)c2cc(-c3ccco3)on2)cc1`: the EC50 is > 95.1 µM (inactive).

Take `CCC(=NC(C)c1ccccc1)c1c(O)n(C)c(=O)n(C)c1=O` (centres undefined): the EC50 was > 30 µM (inactive).

Consider `CCCn1c(NC(=O)c2cccc(S(=O)(=O)N3CCCC3)c2)nc2ccccc21`, for which the EC50 is 10.4 µM (inactive).

Consider `Cc1nc2sccn2c1-c1csc(NCc2ccccc2)n1`, for which the EC50 is 20 µM (inactive).

`O=C(CSc1nnc(-c2ccc(Cl)cc2)n1Cc1ccco1)c1cccs1`: the EC50 was > 30 µM (inactive).

Take `FC(F)(F)c1ccc(N2CCN(c3cc(-c4ccccc4)nc4ncnn34)CC2)nc1`: the EC50 was > 95.1 µM (inactive).

`CCOc1ccc(-c2nc(-c3ccccc3)no2)cc1OCC`: the EC50 was > 95.1 µM (inactive).

For the molecule `Nc1nonc1C(=O)NCCNCc1cc(Br)ccc1OCc1ccc(F)cc1`, the EC50 is 30.5 µM (inactive).

For `O=C(Nc1ncc(Br)s1)C(Cc1ccccc1)n1cccc1` (centres undefined), the EC50 was > 10 µM (inactive).

Regarding `COc1ccc(CCNc2c(C)c(C)nc3ncnn23)cc1`, the EC50 was 43.4 µM (inactive).

Consider `COc1ccc(CNc2cc(C)nc3ncnn23)c(OC)c1`, for which the EC50 is > 95.1 µM (inactive).

`Cc1ccc(Cl)cc1N1CCN(C(=O)COc2ccc(S(=O)(=O)NC(C)C)cc2)CC1`: the EC50 is 30 µM (inactive).

Consider `c1ccc2c(c1)oc1c(N3CCN(Cc4ccc5c(c4)OCO5)CC3)ncnc12`, for which the EC50 is 21.3 µM (inactive).

For the molecule `COC(=O)c1ccc2c(=O)n(C3CCCCC3)c(SCC#N)nc2c1`, the EC50 is > 95.1 µM (inactive).

As for `O=C(Nc1nccs1)c1ccc(S(=O)(=O)NCC2CCCCC2)cc1`, the EC50 was > 30 µM (inactive).

Turning to `Cc1onc(-c2ccccc2Cl)c1C(=O)Oc1cc(N)n(S(=O)(=O)c2ccc(F)cc2)n1`, the EC50 was 9.2 µM.

Take `O=C(Nc1ccc(Cl)cc1)N1CCC(c2nc(-c3ccc(F)cc3)no2)CC1`: the EC50 was 20 µM (inactive).

In the case of `Clc1ccc(NCn2cncn2)nc1`, the EC50 was > 95.1 µM (inactive).

For `CCc1ccc(S(=O)(=O)NCCc2csc(-c3ccccc3)n2)s1`, the EC50 is 33.4 µM (inactive).

As to `CCc1c(C)nc2ncnn2c1NCCc1ccc(OC)cc1`, the EC50 is 40.9 µM (inactive).

For `CCN(CC)C(=O)Oc1ccc2c(=O)c(-c3ccc(OC)cc3)coc2c1`, the EC50 was > 95.1 µM (inactive).

As to `Cc1ccc(-c2n[nH]c(=S)n2C)cc1`, the EC50 is > 95.1 µM (inactive).

Take `CCOC(=O)C1C(=O)C=C(c2ccc(OC)cc2)CC1c1ccco1` (centres undefined): the EC50 is > 30 µM (inactive).

In the case of `Cc1cc(C)n(-c2nc3ccccc3c(=O)n2OCCOc2ccccc2)n1`, the EC50 was > 95.1 µM (inactive).

As for `COCC(=O)Nc1cccc(C(F)(F)F)c1`, the EC50 is > 95.1 µM (inactive).

Take `CCC(=O)Nc1ccc2c(c1)C(=O)N(C1CCCCC1)C2=O`: the EC50 is > 95.1 µM (inactive).

In the case of `COc1ccc(-c2noc(-c3ccccc3F)n2)cc1`, the EC50 is > 95.1 µM (inactive).

As for `Cc1ccc(-c2csc(N3CCC(NS(=O)(=O)c4ccc5c(c4)OCCO5)CC3)n2)cc1`, the concentration giving a half-maximal response (EC50) was 5.75 µM.

On to `Cc1ccc(C)c(-n2nnnc2Sc2nnnn2-c2ccccc2)c1`, for which the concentration for a half-maximal effect (EC50) is 6.91 µM.

As for `COc1cc(CSc2nnnn2-c2ccc(C)cc2)cc(OC)c1OC`, the EC50 is > 30 µM (inactive).

For the molecule `COc1ccc2c(c1)-c1nc(NC(=O)c3cccs3)sc1CC2`, the EC50 was 16.2 µM (inactive).

With `OC1(c2cccc(C(F)(F)F)c2)CCN(c2ncnc3c2[nH]c2ccc(F)cc23)CC1`, the EC50 was > 3 µM (inactive).

For the molecule `COc1ccc(/C=N/O)cc1COc1ccc(NC(C)=O)cc1`, the EC50 was > 95.1 µM (inactive).

With `Cc1ccccc1CS(=O)(=O)c1nnc([C@H](CC(C)C)NC(=O)OC(C)(C)C)o1`, the EC50 was 2.89 µM.

In the case of `C=CCOC(=O)c1[nH]c2c(c1C)C(=O)CC(c1cc(OC)c(OC)c(OC)c1)C2` (centres undefined), the EC50 is > 95.1 µM (inactive).

With `Cc1cc(C(=O)COC(=O)c2csc3c2CCCC3)c(C)n1C`, the EC50 was > 95.1 µM (inactive).

Turning to `Cc1ccc2[nH]c3c(N4CCN(Cc5ccc6c(c5)OCO6)CC4)ncnc3c2c1`, the EC50 is > 95.1 µM (inactive).

As to `Fc1ccc(COc2ccc(/C=N/n3cnnc3)cc2)cc1`, the EC50 was > 95.1 µM (inactive).

Consider `CC1=CC(C)(C)Nc2ccc(OC(=O)c3ccco3)cc21`, for which the EC50 was > 3 µM (inactive).

Turning to `O=C(NCc1ccco1)C1CCN(C(=O)c2cc3sccc3n2Cc2ccc(Cl)cc2)CC1`, the EC50 was 22.4 µM (inactive).

As to `CN(C)c1ccnc2sc3c(=O)n(Cc4ccccc4)cnc3c12`, the EC50 was > 95.1 µM (inactive).

As to `CCn1c(SCC(=O)Nc2nc3ccc(C)cc3s2)nc2c(c1=O)SC(C)C2` (centres undefined), the EC50 is > 10 µM (inactive).

`CCOC(=O)c1c(C)[nH]c(C(=O)C(C)OC(=O)c2cccc(OCc3c(C)noc3C)c2)c1C` (centres undefined): the EC50 is 20.1 µM (inactive).

Regarding `O=C(CSc1nnc(-c2c[nH]c3ccccc23)o1)N(Cc1ccccc1)c1ccc(F)cc1`, the EC50 is 16 µM (inactive).

For `CCN(CC)C(=O)Oc1ccc2c(=O)c(-c3ccccc3)coc2c1`, the EC50 was > 95.1 µM (inactive).

As for `CC(C)c1cc(C(=O)N2CCN(C(c3ccccc3)c3ccccc3)CC2)no1`, the EC50 was > 95.1 µM (inactive).

With `COC(=O)c1ccc(C(c2c(N)n(CC(C)C)c(=O)[nH]c2=O)N2CCN(c3ccccc3)CC2)cc1` (centres undefined), the EC50 was > 95.1 µM (inactive).

For the molecule `Fc1ccccc1COc1ccc(/C=N/n2cnnc2)cc1`, the EC50 is > 95.1 µM (inactive).

Take `CCOC(=O)c1oc2cc(O)c(CC)cc2c(=O)c1-c1ccc2c(c1)OCCO2`: the EC50 is > 30 µM (inactive).

Turning to `Cc1ccc(S(=O)(=O)n2nc(C)c(Br)c2C)c(C)c1C`, the EC50 was > 95.1 µM (inactive).

As for `O=C(Nc1ccc(-c2noc(CCc3ccccc3)n2)cc1)c1cccnc1`, the EC50 was > 30 µM (inactive).

For the molecule `Cc1ccc2[nH]c3c(N4CCCCCC4)ncnc3c2c1`, the EC50 was 10.9 µM (inactive).

As for `CCOc1ccc(-c2nc(-c3ccncc3)no2)cc1OCC`, the EC50 is > 95.1 µM (inactive).

For `COc1ccc(-c2nc3cc(NC(=O)Cc4ccc(OC)c(OC)c4)ccc3o2)cc1`, the EC50 is > 10 µM (inactive).

As for `CCOc1ccc(-c2nnc(-c3cccs3)o2)cc1OCC`, the EC50 is > 95.1 µM (inactive).

For the molecule `COc1cc(C#CC#CCN2CCCCC2)ccc1O`, the EC50 was 63.9 µM (inactive).

As to `CN=C(NC#N)SCC(=O)c1ccc(Cl)cc1Cl`, the EC50 is > 30 µM (inactive).

Regarding `CCc1ccc2c(COC(=O)c3n[nH]c4ccccc34)cc(=O)oc2c1`, the EC50 is > 95.1 µM (inactive).

Consider `COC(=O)CS(=O)(=O)c1nnc([C@H](Cc2ccccc2)NC(=O)OC(C)(C)C)o1`, for which the half-maximal effective concentration (EC50) was 3.68 µM.

`CC(=O)c1sc(NC(=O)C2(F)C(F)(F)C(F)(F)C(F)(F)C(F)(F)C2(F)F)nc1C`: the EC50 is 31.2 µM (inactive).

Regarding `Cc1ccc(-n2c(C)cc(C(=O)CSc3nnnn3C)c2C)cc1`, the EC50 was > 95.1 µM (inactive).

Take `CCSc1nnc(NC(=O)C(Cc2ccccc2)n2cccc2)s1` (centres undefined): the EC50 is > 95.1 µM (inactive).

As to `COc1cc(-c2noc(C3CCCN(S(=O)(=O)c4cccc(Cl)c4)C3)n2)cc(OC)c1OC` (centres undefined), the EC50 is > 95.1 µM (inactive).

Take `O=C(C1CCC1)N1CCc2cc(S(=O)(=O)Nc3ccc4c(c3)OCCO4)ccc21`: the EC50 was > 95.1 µM (inactive).

On to `COCCn1c(C)cc(C(=O)CSc2nc3ccccc3o2)c1C`, for which the EC50 was > 95.1 µM (inactive).

For `CC(C)OCCCNc1ncnc2c1[nH]c1ccc(F)cc12`, the EC50 was 24.4 µM (inactive).

Take `CC(Oc1ccccc1Br)C(=O)N1CCc2ccccc21` (centres undefined): the EC50 was > 95.1 µM (inactive).

For `O=C(CSCC(=O)N1CCCCC1)Nc1nc(-c2cccs2)cs1`, the EC50 was > 30 µM (inactive).

`COC(=O)c1cc(NCc2ccccc2F)ccc1N1CCOCC1`: the EC50 is > 95.1 µM (inactive).

On to `Cc1cc(C(=O)N2CCN(C(c3ccccc3)c3ccccc3)CC2)on1`, for which the EC50 is > 95.1 µM (inactive).

In the case of `Cc1nc2ncnn2c(N2CCN(c3cccc(C(F)(F)F)c3)CC2)c1C`, the EC50 is > 30 µM (inactive).

For the molecule `Fc1ccc2[nH]c3c(N4CCN(Cc5ccc6c(c5)OCO6)CC4)ncnc3c2c1`, the EC50 is 8.16 µM.

For `COc1ccc(-n2nnnc2S(=O)(=O)CC(=O)N2CCCCC2)cc1`, the EC50 is 2.35 µM.

Consider `Cc1nn(Cc2ccc(Cl)cc2)c(C)c1NC(=O)c1cc(-c2ccco2)on1`, for which the EC50 is 85.2 µM (inactive).

As for `CC1CC(C)(C)Nc2ccc(OC(=O)c3ccco3)cc21` (centres undefined), the EC50 is 7.66 µM.

Consider `O=C(c1ccc(F)cc1)C(CN1CCOCC1)c1ccccc1` (centres undefined), for which the EC50 is 11.4 µM (inactive).

For `Cc1cc(-c2nnc(-c3ccccc3)c(-c3ccccc3)n2)c(C)o1`, the EC50 is 33.7 µM (inactive).

Turning to `O=C(CCN1CCc2ccccc2CC1)c1ccc2c(c1)OCCO2`, the EC50 was 4.84 µM.

Regarding `CCCCOc1ccc(S(=O)(=O)n2c(C)nc3ccccc32)cc1`, the EC50 is > 95.1 µM (inactive).

For `CCc1cc(-c2[nH]ncc2-c2ccc3c(c2)OCO3)c(O)cc1O`, the EC50 was 9.08 µM.
